Assay results reported in ChEMBL document CHEMBL4376854, “Investigation of the Adrenergic and Opioid Binding Affinities, Metabolic Stability, Plasma Protein Binding Properties, and Functional Effects of Selected Indole-Based Kratom Alkaloids” (J Med Chem, 2020).
The source made the active and inactive calls. The calls are words filed in the database; no cut-off is given here.

How the values were obtained:
[1] = molecular target: T1, Kappa-type opioid receptor (Homo sapiens, UniProt P41145); details: 100 nM
T1 sequence (P41145 whole entry): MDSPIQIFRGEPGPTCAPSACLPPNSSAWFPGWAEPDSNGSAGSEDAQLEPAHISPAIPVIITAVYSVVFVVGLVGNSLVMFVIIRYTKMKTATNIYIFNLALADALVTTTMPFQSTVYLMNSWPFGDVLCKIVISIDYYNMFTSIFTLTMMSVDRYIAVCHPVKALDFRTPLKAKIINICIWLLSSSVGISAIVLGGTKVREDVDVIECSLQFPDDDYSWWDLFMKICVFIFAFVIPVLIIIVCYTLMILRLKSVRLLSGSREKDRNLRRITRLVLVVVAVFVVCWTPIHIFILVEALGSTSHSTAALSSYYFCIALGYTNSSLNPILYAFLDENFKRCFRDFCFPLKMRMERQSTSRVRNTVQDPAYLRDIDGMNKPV

[2] = molecular target: T2, Alpha-1A adrenergic receptor (Homo sapiens) (UniProt P35348); details: CHO, 10000 nM
T2 sequence (whole entry): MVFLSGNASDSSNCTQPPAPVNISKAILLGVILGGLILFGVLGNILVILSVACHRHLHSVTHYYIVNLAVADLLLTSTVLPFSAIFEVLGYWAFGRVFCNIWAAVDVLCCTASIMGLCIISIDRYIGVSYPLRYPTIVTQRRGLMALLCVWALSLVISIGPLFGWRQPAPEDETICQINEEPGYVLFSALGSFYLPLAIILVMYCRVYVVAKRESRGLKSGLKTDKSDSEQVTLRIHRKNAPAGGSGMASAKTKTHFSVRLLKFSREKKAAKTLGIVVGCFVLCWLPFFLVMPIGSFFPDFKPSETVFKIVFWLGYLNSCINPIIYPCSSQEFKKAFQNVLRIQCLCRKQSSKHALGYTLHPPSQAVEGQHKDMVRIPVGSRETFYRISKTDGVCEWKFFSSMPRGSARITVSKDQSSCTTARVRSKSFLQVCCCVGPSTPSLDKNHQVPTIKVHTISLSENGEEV

[3] = molecular target: T3, Delta-type opioid receptor (Homo sapiens, UniProt P41143); test: Displacement of [3H]DADLE from human recombinant delta opioid receptor expressed in rat Chem-1 (RBL) cell membranes at 10000 nM incubated for 60 mins relative to control
T3 sequence (P41143 whole entry): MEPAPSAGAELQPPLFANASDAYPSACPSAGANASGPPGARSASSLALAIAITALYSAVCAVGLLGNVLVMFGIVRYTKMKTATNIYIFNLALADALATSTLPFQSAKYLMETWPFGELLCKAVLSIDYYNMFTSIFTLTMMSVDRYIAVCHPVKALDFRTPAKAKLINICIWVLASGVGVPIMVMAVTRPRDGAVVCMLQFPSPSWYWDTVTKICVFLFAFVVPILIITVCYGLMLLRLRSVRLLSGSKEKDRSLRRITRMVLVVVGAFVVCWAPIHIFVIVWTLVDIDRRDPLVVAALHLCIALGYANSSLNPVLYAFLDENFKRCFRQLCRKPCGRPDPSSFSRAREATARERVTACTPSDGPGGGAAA

[4] = molecular target: T1, Kappa-type opioid receptor; test: Displacement of [3H]U69,593 from human recombinant kappa opioid receptor expressed in rat RBL cell membranes incubated for 60 mins
[5] = molecular target: T4, Alpha-2B adrenergic receptor (Homo sapiens) (UniProt P18089); details: CHO, 10000 nM
T4 sequence (whole entry): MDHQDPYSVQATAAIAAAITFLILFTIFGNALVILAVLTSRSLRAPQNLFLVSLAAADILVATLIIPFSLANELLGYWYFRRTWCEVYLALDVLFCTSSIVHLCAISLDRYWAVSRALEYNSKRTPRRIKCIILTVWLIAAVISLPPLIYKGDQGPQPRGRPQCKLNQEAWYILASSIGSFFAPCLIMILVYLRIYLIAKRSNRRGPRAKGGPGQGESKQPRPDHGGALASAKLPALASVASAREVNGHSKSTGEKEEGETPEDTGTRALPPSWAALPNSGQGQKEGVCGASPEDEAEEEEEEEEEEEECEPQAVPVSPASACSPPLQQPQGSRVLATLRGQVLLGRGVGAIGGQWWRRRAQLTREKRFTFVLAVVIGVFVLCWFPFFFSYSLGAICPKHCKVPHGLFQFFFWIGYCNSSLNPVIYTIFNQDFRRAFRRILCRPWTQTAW

[6] = tested on: Rattus norvegicus; test: Antinociceptive activity in Sprague-Dawley rat dosed intravenously using cumulative dosing every 5 mins until rat maxed-out on hot plate co-treated with 0.1 mg/kg naltrexone by hot plate test; assay type: functional, organism-based
[7] = molecular target: Mu-type opioid receptor (Homo sapiens, UniProt P35372); details: HEK293, 10000 nM
Chain of Mu-type opioid receptor (P35372 whole entry): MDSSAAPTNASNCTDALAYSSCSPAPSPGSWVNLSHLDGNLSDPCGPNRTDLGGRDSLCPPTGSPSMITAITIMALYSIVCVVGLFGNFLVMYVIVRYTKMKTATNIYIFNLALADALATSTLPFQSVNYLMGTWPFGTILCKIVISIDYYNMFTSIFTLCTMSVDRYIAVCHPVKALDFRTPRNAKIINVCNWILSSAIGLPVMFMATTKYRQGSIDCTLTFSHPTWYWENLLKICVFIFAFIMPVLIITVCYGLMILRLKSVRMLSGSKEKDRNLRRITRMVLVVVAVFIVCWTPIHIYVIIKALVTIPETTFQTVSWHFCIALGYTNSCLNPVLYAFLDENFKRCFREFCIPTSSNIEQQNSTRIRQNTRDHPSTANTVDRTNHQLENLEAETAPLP

[8] = human, microsomes, 1 h
[9] = molecular target: T3, Delta-type opioid receptor; test: Displacement of [3H]DADLE from human recombinant delta opioid receptor expressed in rat Chem-1 (RBL) cell membranes at 100 nM incubated for 60 mins relative to control
[10] = molecular target: T5, Alpha-1D adrenergic receptor (Homo sapiens) (UniProt P25100); details: CHO, 100 nM
T5 sequence (whole entry): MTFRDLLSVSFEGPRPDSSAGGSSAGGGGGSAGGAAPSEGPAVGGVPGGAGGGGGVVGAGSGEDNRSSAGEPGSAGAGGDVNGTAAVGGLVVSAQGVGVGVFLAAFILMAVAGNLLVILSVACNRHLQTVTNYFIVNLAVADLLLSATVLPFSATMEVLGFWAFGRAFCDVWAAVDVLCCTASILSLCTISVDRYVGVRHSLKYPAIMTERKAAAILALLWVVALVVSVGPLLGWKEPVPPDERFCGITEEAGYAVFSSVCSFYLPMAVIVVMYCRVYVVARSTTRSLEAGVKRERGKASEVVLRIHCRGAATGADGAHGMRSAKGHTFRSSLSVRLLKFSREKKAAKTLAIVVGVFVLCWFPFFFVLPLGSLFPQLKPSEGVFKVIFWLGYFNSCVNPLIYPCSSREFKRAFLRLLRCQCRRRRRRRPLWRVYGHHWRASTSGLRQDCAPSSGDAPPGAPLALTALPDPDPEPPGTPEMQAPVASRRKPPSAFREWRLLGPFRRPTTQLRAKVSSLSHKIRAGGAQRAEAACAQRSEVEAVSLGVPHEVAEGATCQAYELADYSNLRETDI

[11] = molecular target: T6, Alpha-1B adrenergic receptor (Homo sapiens) (UniProt P35368); details: CHO, 10000 nM
T6 sequence (whole entry): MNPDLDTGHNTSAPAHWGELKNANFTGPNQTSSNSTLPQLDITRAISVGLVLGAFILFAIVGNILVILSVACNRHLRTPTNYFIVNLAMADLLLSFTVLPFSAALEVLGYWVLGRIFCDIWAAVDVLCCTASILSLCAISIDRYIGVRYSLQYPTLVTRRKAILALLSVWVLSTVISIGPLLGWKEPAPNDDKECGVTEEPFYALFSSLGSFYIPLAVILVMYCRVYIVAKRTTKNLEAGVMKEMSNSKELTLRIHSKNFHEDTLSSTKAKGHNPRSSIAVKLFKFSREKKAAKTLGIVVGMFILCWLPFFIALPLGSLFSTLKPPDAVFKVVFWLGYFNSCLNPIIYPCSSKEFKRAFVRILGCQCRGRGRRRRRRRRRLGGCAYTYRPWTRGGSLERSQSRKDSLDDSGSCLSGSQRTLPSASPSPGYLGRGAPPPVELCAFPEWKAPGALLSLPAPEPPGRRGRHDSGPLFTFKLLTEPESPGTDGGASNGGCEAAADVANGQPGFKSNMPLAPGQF

[12] = human, plasma, 1 µM
[13] = tested on: Rattus norvegicus; test: Antinociceptive activity in Sprague-Dawley rat dosed intravenously using cumulative dosing every 5 mins until rat maxed-out on hot plate by hot plate test relative to control; assay type: functional

Work on `CC[C@@H]1CN2CCc3c([nH]c4cccc(OC)c34)[C@H]2C[C@@H]1/C(=C\OC)C(=O)OC` yielded an inhibition [1] of 61.9%, an inhibition [2] of 81.1% and an inhibition [3] of 69.2%. For the same molecule, the Ki [4] was 116 nM, the inhibition [5] was 67.2% and the Activity [6] was “inactive”. The inhibition [7] was 98%, the Kel [8] was 0.0166 min⁻¹ and the inhibition [9] was 0.6%. For the same molecule, the inhibition [10] was 6.3%, the inhibition [11] was 95.6% and the Fu [12] was 0.01. The MPE [13] was 100%.

`CC[C@@H]1CN2CCc3c([nH]c4cccc(OC)c34)[C@@H]2C[C@@H]1/C(=C\OC)C(=O)OC` showed an inhibition [1] of 25.2%, an inhibition [2] of 83.5% and an inhibition [3] of 18.3%. For the same molecule, the Ki [4] was 198 nM, the inhibition [5] was 25.1% and the Activity [6] was “inactive”. It also gave an inhibition [7] of 93.7%, a Kel [8] of 0.0347 min⁻¹ and an inhibition [9] of 0.4%. For the same molecule, the inhibition [10] was -2.1%, the inhibition [11] was 40.3% and the Fu [12] was 0.02. The Emax ([13]; Rattus norvegicus, Sprague-Dawley, iv, 5 min) was 17.3%.
